Earlier results as cited in patent publication US8227637B2, “Stable, water-soluble near infrared dyes” (Epolin, Inc., priority 2008, dated 2012).

Details: SbF6 salt of U.S. Pat. No. 3,709,830, statement in background

water solubility: not water-soluble
SMILES: OCCN(CCO)c1ccc([N+](=C2C=CC(=[N+](c3ccc(N(CCO)CCO)cc3)c3ccc(N(CCO)CCO)cc3)C=C2)c2ccc(N(CCO)CCO)cc2)cc1.[F][Sb-]([F])([F])([F])([F])[F].[F][Sb-]([F])([F])([F])([F])[F] [N,N′,N″,N′″-tetrakis(4-[di(2-hydroxyethyl)amino]-phenyl)-p-benzoquinonebis(imoniumhexafluoro-antimonate)]
